In brackets after ≈: the same amount, converted by molar mass. Like-named read-outs stand apart in the source and are kept apart here. Marks after values point to notes of the source that are not given here.
Tests used:
[1] = tested on: wild-type Gram-negative E. coli; details: background; cited from earlier work
[2] = tested on: methicillin-resistant S. aureus (MRSA); details: background; cited from earlier work
[3] = tested on: E. coli, efflux pumps genetically deleted; details: background; cited from earlier work
[4] = tested on: Mtb 56; assay type: cell-based, Mycobacterium tuberculosis; details: MDR strain
[5] = tested on: Mtb C-31; assay type: cell-based, Mycobacterium tuberculosis; details: MDR strain
[6] = tested on: Mtb Erdman; assay: Mtb Erdman MIC, microtiter broth dilution; assay type: cell-based, Mycobacterium tuberculosis
Description: (§1) (provided by Leonid Heifets).
(§2) Each isolate was tested in duplicate.

[7] = tested on: Mtb 5; assay type: cell-based, Mycobacterium tuberculosis; details: XDR strain
[8] = tested on: Mtb; assay: M. tuberculosis MIC, microtiter broth dilution (Table 6); assay type: cell-based, Mycobacterium tuberculosis
Description: as §1, §2

[9] = tested on: Mtb 365; assay type: cell-based, Mycobacterium tuberculosis; details: MDR strain
[10] = tested on: Mtb 276; assay type: cell-based, Mycobacterium tuberculosis; details: MDR strain
[11] = tested on: Mtb 352; assay type: cell-based, Mycobacterium tuberculosis; details: MDR strain
[12] = molecular target: E. coli (Ec) DHFR (Escherichia coli (strain K12), UniProt P0ABQ4); assay: E. coli DHFR enzyme inhibition (NADPH oxidation, 340 nm); assay type: biochemical
[13] = tested on: E. coli (ATCC 25922); assay: E. coli MIC, microdilution broth assay; assay type: cell-based, Escherichia coli
Description: Minimum inhibitory concentrations were determined using E. coli (ATCC 25922) and the microdilution broth assay with an inoculum of […] CFU/mL in Isosensitest Broth (Oxoid).

[14] = tested on: S. aureus ATCC strain 43300; assay: microbe, parasite or virus in culture; assay type: cell-based, Staphylococcus aureus; details: for MIC Sa43300: Table 12, wild-type strain
[15] = tested on: E. coli NR698; assay type: cell-based, Escherichia coli
[16] = molecular target: S. aureus (Sa) DHFR (Staphylococcus aureus, UniProt P0A017); assay type: biochemical; details: Table 2
[17] = molecular target: MtbDHFR (Mycobacterium tuberculosis (strain ATCC 25618 / H37Rv), UniProt P9WNX1); assay: M. tuberculosis DHFR enzyme inhibition; assay type: biochemical
[18] = tested on: Sa(H30N) strain
[19] = molecular target: CYP3A4 (Homo sapiens (Human), UniProt P08684); assay: Cytochrome P450 inhibition, CYP3A4
[20] = Microsomal stability assay (UPLC of parent compound)
[21] = molecular target: CYP2D6 (Homo sapiens (Human), UniProt P10635); assay: Cytochrome P450 inhibition, CYP2D6
[22] = tested on: Sa(H30N) strain; assay: microbe, parasite or virus in culture; details: Staphylococcus aureus, read-out: MIC Sa(H30N)

## CN(Cc1cnc2nc(N)nc(N)c2n1)c1ccc(C(=O)N[C@@H](CCC(=O)O)C(=O)O)cc1 [methotrexate]
[1]
  MIC wild-type E. coli: over 1 mM
[2]
  MIC50 MRSA: 20 µg/mL (≈ 44 µM)
  MIC90 MRSA: 100 µg/mL (≈ 220 µM)
[3]
  MIC E. coli, efflux pumps genetically deleted: 64 to 256 µM

## CCc1nc(N)nc(N)c1C#CC(C)c1cc2c(c(-c3cncn3C)c1)OCO2 (stereo not shown) [Compound 54]
[4]
  MIC Mtb56: 8 µg/mL (≈ 20.5 µM)
[5]
  MIC Mtb C-31: 8 µg/mL (≈ 20.5 µM)
[6]
  MIC Mtb Erdman: 4 µg/mL (≈ 10.2 µM)
[7]
  MIC Mtb 5: 8 µg/mL (≈ 20.5 µM)
[8]
  MIC Mtb: 2 µg/mL (≈ 5.12 µM)
[9]
  MIC Mtb 365: 8 µg/mL (≈ 20.5 µM)
[10]
  MIC Mtb 276: 4 µg/mL (≈ 10.2 µM)
[11]
  MIC Mtb 352: 4 µg/mL (≈ 10.2 µM)

## CCc1nc(N)nc(N)c1C#C[C@H](C)c1cc(-c2ccc(C(=O)OC)cc2)ccc1OC [Compound 33]
[12]; Table 2
  IC50: 34 nM
[13]; Table 2, wild-type E. coli
  MIC E. coli 25922: >20* μg/mL
[14]; Table 2
  MIC S. aureus 43300: 0.625 µg/mL (≈ 1.45 µM)
[15]; Table 2
  MIC E. coli NR698: 0.156 µg/mL (≈ 0.362 µM)
[16]
  IC50: 22 nM

## CCc1nc(N)nc(N)c1C#CCc1cc(-c2ccc(C(=O)O)cc2)ccc1OC [Compound 15]
[17]
  IC50: 173 nM
[4]
  MIC Mtb56: 16 µg/mL (≈ 39.8 µM)
[18]
  MIC Sa(H30N): 0.1563 µg/mL (≈ 0.388 µM)
[5]
  MIC Mtb C-31: >32 µg/mL
[6]
  MIC Mtb Erdman: 16 µg/mL (≈ 39.8 µM)
[19]
  concentration required for inhibition of CYP3A4: greater than 50 μM
[12]; Table 2
  IC50: 90 nM
[7]
  MIC Mtb 5: 8 µg/mL (≈ 19.9 µM)
[13]; Table 2, wild-type E. coli
  MIC E. coli 25922: >20 µg/mL
[8]
  MIC Mtb: 4 µg/mL (≈ 9.94 µM)
[20]; phase I
  phase I half-life: 1.65 h
[20]; phase II
  phase II half-life: approximately 87 min
[14]
  MIC S. aureus 43300: 0.0195 µg/mL (≈ 0.0485 µM)
  MIC Sa43300: 0.0195 µg/mL (≈ 0.0485 µM)
[15]; Table 2
  MIC E. coli NR698: 0.0098 µg/mL (≈ 0.0244 µM)
[16]
  IC50: 32 nM
[9]
  MIC Mtb 365: 4 µg/mL (≈ 9.94 µM)
[10]
  MIC Mtb 276: 16 µg/mL (≈ 39.8 µM)
[21]
  concentration required for inhibition of CYP2D6: greater than 50 μM
[11]
  MIC Mtb 352: 16 µg/mL (≈ 39.8 µM)

## CCc1nc(N)nc(N)c1C#CC(C)c1cc2c(c(-c3ccncc3)c1)OCO2 (stereo not shown) [Compound B, reference compound]
[18]
  MIC Sa(H30N): 5 µg/mL (≈ 12.9 µM)
[14]
  MIC Sa43300: 0.0781 µg/mL (≈ 0.202 µM)

## CCc1nc(N)nc(N)c1C#CCc1cc2c(c(-c3cc(F)c(OC)c(F)c3)c1)OCO2 [Compound 40]
[12]; Table 3
  IC50: > 20000 nM
[13]; Table 3
  MIC E. coli 25922: 5 µg/mL (≈ 11.4 µM)
[15]; Table 3
  MIC E. coli NR698: 0.78 µg/mL (≈ 1.78 µM)

## CCc1nc(N)nc(N)c1C#CCc1ccc(OC)c(-c2ccc(C(=O)O)cc2)c1 [Compound 59]
[17]
  IC50: 460 nM
[4]
  MIC Mtb56: 0.5 µg/mL (≈ 1.24 µM)
[5]
  MIC Mtb C-31: 8 µg/mL (≈ 19.9 µM)
[6]
  MIC Mtb Erdman: 0.5 µg/mL (≈ 1.24 µM)
[7]
  MIC Mtb 5: 2 µg/mL (≈ 4.97 µM)
[8]
  MIC Mtb: 0.5 µg/mL (≈ 1.24 µM)
[9]
  MIC Mtb 365: 0.125 µg/mL (≈ 0.311 µM)
[11]
  MIC Mtb 352: 0.5 µg/mL (≈ 1.24 µM)

## COc1cc(Cc2cnc(N)nc2N)cc(OC)c1OC [TMP, trimethoprim]
[1]
  MIC E. coli: 0.3125 µg/mL (≈ 1.08 µM)
[2]
  MIC MRSA: 0.3125 µg/mL (≈ 1.08 µM)
[8]; Mycobacterium tuberculosis
  MIC: 256 µg/mL (≈ 882 µM)
[14]; Staphylococcus aureus, ATCC43300, read-out: MIC Sa43300
  MIC: 0.312 µg/mL (≈ 1.08 µM)
[22]
  MIC: 2.5 µg/mL (≈ 8.61 µM)

## CCc1nc(N)nc(N)c1C#C[C@H](C)c1cc2c(c(-c3ccncc3)c1)OCO2 [Compound 55]
[17]
  IC50: 206 nM
[4]
  MIC Mtb56: 8 µg/mL (≈ 20.6 µM)
[5]
  MIC Mtb C-31: 16 µg/mL (≈ 41.3 µM)
[6]
  MIC Mtb Erdman: 8 µg/mL (≈ 20.6 µM)
[7]
  MIC Mtb 5: 8 µg/mL (≈ 20.6 µM)
[8]
  MIC Mtb: 4 µg/mL (≈ 10.3 µM)
[9]
  MIC Mtb 365: 4 µg/mL (≈ 10.3 µM)
[10]
  MIC Mtb 276: 8 µg/mL (≈ 20.6 µM)
[11]
  MIC Mtb 352: 8 µg/mL (≈ 20.6 µM)

## CCc1nc(N)nc(N)c1C#C[C@@H](C)c1cc(-c2ccncc2)ccc1OC [E, reference compound]
[18]
  MIC Sa(H30N): 0.625 µg/mL (≈ 1.67 µM)
[14]
  MIC Sa43300: 0.0195 µg/mL (≈ 0.0522 µM)

## CCc1nc(N)nc(N)c1C#CCc1cc(-c2ccccc2C(=O)O)ccc1OC [Compound 14]
[17]
  IC50: 311 nM
[12]; Table 2
  IC50: 526 nM
[13]; Table 2, wild-type E. coli
  MIC E. coli 25922: >20 µg/mL
[8]
  MIC Mtb: 1 µg/mL (≈ 2.48 µM)
[14]
  MIC S. aureus 43300: 0.625 µg/mL (≈ 1.55 µM)
[15]; Table 2
  MIC E. coli NR698: 0.0391 µg/mL (≈ 0.0972 µM)
[16]
  IC50: 157 nM

## CCc1nc(N)nc(N)c1C#CC(C)c1cc(-c2ccncc2)ccc1OC (racemic) [C, reference compound]
[18]
  MIC Sa(H30N): 2.5 µg/mL (≈ 6.69 µM)
[14]
  MIC Sa43300: 0.625 µg/mL (≈ 1.67 µM)

## CCc1nc(N)nc(N)c1C#C[C@H](C)c1cc(OC)cc(-c2ccc(C(=O)O)cc2)c1 [Compound 31]
[18]
  MIC Sa(H30N): 0.0781 µg/mL (≈ 0.188 µM)
[13]; Table 2, wild-type E. coli
  MIC E. coli 25922: 10 µg/mL (≈ 24 µM)
[14]
  MIC S. aureus 43300: 0.0098 µg/mL (≈ 0.0235 µM)
  MIC Sa43300: 0.0098 µg/mL (≈ 0.0235 µM)
[15]; Table 2
  MIC E. coli NR698: 0.0024 µg/mL (≈ 0.00576 µM)

## CCc1nc(N)nc(N)c1C#C[C@@H](C)c1cc(-c2ccncc2)ccc1OC [Compound 57]
[17]
  IC50: 73 nM
[8]
  MIC Mtb: 2 µg/mL (≈ 5.36 µM)

## CCc1nc(N)nc(N)c1C#CCc1cc2c(c(-c3ccc(O)c(F)c3)c1)OCO2 [Compound 38]
[12]; Table 3
  IC50: 1250 nM
[13]; Table 3
  MIC E. coli 25922: 0.625 µg/mL (≈ 1.54 µM)
[15]; Table 3
  MIC E. coli NR698: 0.001 µg/mL (≈ 0.00246 µM)

Source: patent publication US10870625B2, “Zwitterionic propargyl-linked antifolates useful for treating bacterial infections” (THE UNIVERSITY OF CONNECTICUT, priority 2016, dated 2020)
